Where two headings read alike, the source gives them in different places.
Key:
[1] = system: MCF7 adenocarcinoma cell line; assay: Cell proliferation studies in MCF7 cells (ATP-Lite); format: cell-based; conditions: 10 days incubation, cell viability by ATP-Lite luminescence, read-out: PROLIFERATION_CTG_MCF7 IC50
Experimental: Cell Proliferation Studies in MCF7 Cells
Cell proliferation studies were conducted in MCF7 adenocarcinoma cell line. Cells were maintained in DMEM (Corning, Catalog #: 10-013-CV) supplemented with 10% v/v FBS (Gibco, Catalog #: 26140-079), 1% v/v Penicillin Streptomycin (Gibco, Catalog #15140-122) Cells were seeded in 384-well plates at a density of 100 or 200 cells/well. Compounds dissolved in DMSO were plated in quadruplicate using a digital dispenser (D300E, Tecan) and tested on a 9-point 3-fold serial dilution. Cells were incubated for 10 days in a 37° C. active humidified incubator at 5% CO2. A media exchange and second compound addition were performed on day 5. Cell viability was measured using the ATP-Lite 1-Step Luminescence reagent (Perkin Elmer, Catalog #: 6016731) as per manufacturer's instructions. Luminescence signal was measured with a multimode plate reader (Envision 2105, Perkin Elmer). Raw data files were imported to Dotmatics Screening Ultra for IC50 analysis. Luminescence values were normalized to both background and DMSO controls to obtain a percentage of viable cells relative to DMSO vehicle control.

CDK4/Cyclin D1 = CDK4/Cyclin D1 (Homo sapiens (Human), UniProt P11802); assay: CDK4/CyclinD1 enzymatic activity assay (TR-FRET); format: biochemical; conditions: CDK4/CyclinD1 1 nM, ATP 2 mM, read-out: CDK4_D1 IC50
Experimental: CDK4/CyclinD1 Enzymatic Activity Assay
The inhibitory activity of compounds was evaluated in vitro using TR-FRET assay with white 384-well low volume microplate (Greiner Bio-One). CDK4/Cyclin D1 catalyzed phosphorylation of peptide in the presence and absence of compounds was measured. IC50 determination. Recombinant protein complex CDK4/Cyclin D1, expressed from insect cell, was purchased from ProQinase. Testing compounds were dissolved in DMSO at 0.1 mM and tested in 9-dose IC50 mode. The reaction mixture was prepared by mixing CDK4/CyclinD1 (1 nM final), ULight-4E-BP1 (100 nM final, Perkinelmer, TRF0128-D), and ATP (2 mM final) in assay buffer (20 mM of HEPES pH 7.4, 1 mM of EGTA, 0.05% BSA, 0.005% Tween 20, and 1 mM TCEP). The compound of interest in DMSO was added to each well in 3-fold serial dilution by dispenser (TECAN D300E). After 20 minutes preincubation at room temperature, MgCl2 (10 mM final) was added to initiate the reaction. Following a 60 minutes incubation at 37° C., the reaction was stopped by addition of 2 μL of quenching buffer consisting of Lance detection buffer (Perkinelmer CR97-100C), 2 nM LANCE Ultra Europium-anti-P-4E-BP1 (Perkinelmer, TRF0216-D), 10 mM EDTA, and incubate at room temperature for additional 60 minutes in dark. The reaction signal was measured by Envision multimode plate reader (PerkinElmer, 2102-0010). IC50 values were determined by fitting the data to the standard 4 parameters with Hill Slope using GraphPad Prism software.

CDK4/Cyclin D1, sequence (P11802 whole entry): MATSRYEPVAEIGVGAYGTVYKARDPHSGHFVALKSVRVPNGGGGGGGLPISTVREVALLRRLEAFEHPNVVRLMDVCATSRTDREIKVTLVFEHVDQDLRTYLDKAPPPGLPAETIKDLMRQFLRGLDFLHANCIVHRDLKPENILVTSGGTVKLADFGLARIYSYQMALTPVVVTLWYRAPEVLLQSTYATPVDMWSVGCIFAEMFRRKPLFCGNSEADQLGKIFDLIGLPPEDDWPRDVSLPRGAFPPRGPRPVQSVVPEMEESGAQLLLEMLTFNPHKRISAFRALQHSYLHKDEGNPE
CDK4/Cyclin D1, sequence (P24385 whole entry partner): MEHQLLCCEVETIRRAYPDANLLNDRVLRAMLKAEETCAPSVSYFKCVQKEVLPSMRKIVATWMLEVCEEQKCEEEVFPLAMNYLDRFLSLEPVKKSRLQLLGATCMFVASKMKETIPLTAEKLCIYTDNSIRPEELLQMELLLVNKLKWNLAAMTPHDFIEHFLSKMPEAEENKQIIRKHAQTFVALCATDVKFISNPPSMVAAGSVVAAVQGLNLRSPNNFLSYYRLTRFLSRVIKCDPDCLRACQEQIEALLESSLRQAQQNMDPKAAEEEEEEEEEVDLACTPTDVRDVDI

**Q.** `CCN1C(=O)c2c(sc(-c3nc(Nc4ccc(C5CCN(C)CC5)cn4)ncc3Cl)c2C)C12CC2` [Example 11, 2′-(5-Chloro-2-((5-(1-methyl-piperidin-4-yl)pyridin-2-yl)amino)pyrimidin-4-yl)-5′-ethyl-3′-methylspiro[cyclopropane-1,6′-thieno[2,3-c]pyrrol]-4′(5′H)-one] was tested. Which IC50 ([1]; Homo sapiens, 240 h) did it give?
**A.** 0.02 to 0.2 µM

**Q.** And the IC50 (CDK4/Cyclin D1)?
**A.** ≤ 0.02 µM

**Q.** For `CCN1C(=O)c2cc(-c3nc(Nc4ccc(N5C[C@H]6CN(C)C[C@H]6C5)cn4)ncc3C)sc2C12CC2` [Example 17], which IC50 [1] is on record?
**A.** 0.02 to 0.2 µM

**Q.** And the IC50 (CDK4/Cyclin D1)?
**A.** ≤ 0.02 µM

**Q.** With `CCN1C(=O)c2cc(-c3nc(Nc4ccc(C5CCN(C)CC5)cn4)ncc3C)sc2C12CC2` [Example 19, 5′-Ethyl-2′-[5-methyl-2-[[5-(1-methylpiperidin-4-yl)pyridin-2-yl]amino]pyrimidin-4-yl]spiro[cyclopropane-1,6′-thieno[2,3-c]pyrrole]-4′-one] as the molecule, how does the IC50 ([1]; Homo sapiens, 240 h) read?
**A.** 0.02 to 0.2 µM

**Q.** What about the IC50 (CDK4/Cyclin D1) of the same molecule?
**A.** ≤ 0.02 µM

**Q.** With `CCN1CCC(c2ccc(Nc3ncc(F)c(-c4cc5c(s4)C4(CC4)CN(C)C5=O)n3)nc2)C1` (stereo not drawn) [Example 31, 2′-(2-((5-(1-Ethylpyrrolidin-3-yl)pyridin-2-yl)amino)-5-fluoropyrimidin-4-yl)-5′-methyl-5′,6′-dihydro-4′H-spiro[cyclo-propane-1,7′-thieno[3,2-c]pyridin]-4′-one] as the molecule, how does the IC50 ([1]; Homo sapiens, 240 h) read?
**A.** 0.2 to 2 µM

**Q.** And the IC50 (CDK4/Cyclin D1)?
**A.** ≤ 0.02 µM

**Q.** With `Cc1c(-c2nc(Nc3ccc(N4CC5CC(C4)N5C)cn3)ncc2F)sc2c1C(=O)N(C)CC21CC1` [Example 33, 2′-(5-Fluoro-2-((5-(6-methyl-3,6-diazabicyclo[3.1.1]heptan-3-yl)pyridin-2-yl)amino)pyrimidin-4-yl)-3′,5′-dimethyl-5′,6′-dihydro-4′H-spiro[cyclopropane-1,7′-thieno[3,2-c]pyridin]-4′-one] as the molecule, how does the IC50 ([1]; Homo sapiens, 240 h) read?
**A.** 0.02 to 0.2 µM

**Q.** What about the IC50 (CDK4/Cyclin D1) of the same molecule?
**A.** ≤ 0.02 µM

**Q.** For `CCN1CCN(Cc2ccc(Nc3ncc(F)c(-c4sc5c(c4C)C(=O)N(C)CC54CC4)n3)nc2)CC1` [Example 38, 2′-(2-((5-((4-Ethylpiperazin-1-yl)methyl)pyridin-2-yl)amino)-5-fluoropyrimidin-4-yl)-3′,5′-dimethyl-5′,6′-dihydro-4′H-spiro[cyclopropane-1,7′-thieno[3,2-c]pyridin]-4′-one], which IC50 ([1]; Homo sapiens, 240 h) is on record?
**A.** 0.2 to 2 µM

**Q.** And the IC50 (CDK4/Cyclin D1)?
**A.** ≤ 0.02 µM

**Q.** Which results are given for `CCN1CC2(C1)CN(c1ccc(Nc3ncc(C)c(-c4sc5c(c4C)C(=O)N(C)CC54CC4)n3)nc1)C2` [Example 42, 2-[2-[[5-(6-Ethyl-2,6-diazaspiro[3.3]heptan-2-yl)pyridin-2-yl]amino]-5-methylpyrimidin-4-yl]-3,5-dimethylspiro[6H-thieno[3,2-c]pyridine-7,1′-cyclopropane]-4-one]?
**A.** IC50 ([1]; Homo sapiens, 240 h): 0.02 to 0.2 µM; IC50 (CDK4/Cyclin D1): ≤ 0.02 µM

**Q.** `CCN1CC2(C1)CN(c1ccc(Nc3ncc(Cl)c(-c4sc5c(c4C)C(=O)N(C)CC54CC4)n3)nc1)C2` [Example 44] was tested. Which IC50 [1] did it give?
**A.** 0.02 to 0.2 µM

**Q.** And the IC50 (CDK4/Cyclin D1)?
**A.** ≤ 0.02 µM

**Q.** How did the IC50 (CDK4/Cyclin D1) turn out when `CN1CC2(CCC2)c2sc(-c3nc(Nc4ccc(C5CCN(CC(F)F)CC5)cn4)ncc3F)cc2C1=O` [Example 49, 2′-(2-((5-(1-(2,2-Difluoroethyl)piperidin-4-yl)pyridin-2-yl)amino)-5-fluoropyrimidin-4-yl)-5′-methyl-5′,6′-dihydro-4′H-spiro[cyclobutane-1,7′-thieno[3,2-c]pyridin]-4′-one] was run?
**A.** ≤ 0.02 µM

**Q.** How did the IC50 ([1]; Homo sapiens, 240 h) turn out when `CCN1CCC12CN(c1ccc(Nc3ncc(F)c(-c4cc5c(s4)C4(CCC4)CN(C)C5=O)n3)nc1)C2` [Example 51, 2′-(2-((5-(1-Ethyl-1,6-diazaspiro[3.3]heptan-6-yl)pyridin-2-yl)amino)-5-fluoropyrimidin-4-yl)-5′-methyl-5′,6′-dihydro-4′H-spiro[cyclobutane-1,7′-thieno[3,2-c]pyridin]-4′-one] was run?
**A.** 0.02 to 0.2 µM

**Q.** And the IC50 (CDK4/Cyclin D1)?
**A.** ≤ 0.02 µM

**Q.** How did the IC50 (CDK4/Cyclin D1) turn out when `CCN1CCN(Cc2ccc(Nc3ncc(F)c(-c4sc5c(c4C)C(=O)N(C)CC54CCC4)n3)nc2)CC1` [Example 56, 2′-(2-((5-((4-Ethylpiperazin-1-yl)methyl)pyridin-2-yl)amino)-5-fluoropyrimidin-4-yl)-3′,5′-dimethyl-5′,6′-dihydro-4′H-spiro[cyclobutane-1,7′-thieno[3,2-c]pyridin]-4′-one] was run?
**A.** ≤ 0.02 µM

**Q.** How did the IC50 (CDK4/Cyclin D1) turn out when `CN1CCN(c2ccc(Nc3ncc(F)c(-c4cc5c(s4)C4(CCCC4)CN(C)C5=O)n3)nc2)C(C(F)(F)F)C1` (stereo not drawn) [Example 65, 2-[5-Fluoro-2-[[5-[4-methyl-2-(trifluoromethyl)piperazin-1-yl]pyridin-2-yl]amino]pyrimidin-4-yl]-5-methylspiro[6H-thieno[3,2-c]pyridine-7,1′-cyclopentane]-4-one] was run?
**A.** ≤ 0.02 µM

**Q.** With `CCN1CCN(Cc2ccc(Nc3ncc(F)c(-c4ccc5c(c4)C4(CCCC4)CN(C)C5=O)n3)nc2)CC1` [Example 68, 6′-(2-((5-((4-Ethylpiperazin-1-yl)methyl)pyridin-2-yl)amino)-5-fluoropyrimidin-4-yl)-2′-methyl-2′,3′-dihydro-1′H-spiro [cyclo-pentane-1,4′-isoquinolin]-1′-one] as the molecule, how does the IC50 (CDK4/Cyclin D1) read?
**A.** ≤ 0.02 µM

**Q.** With `CCN1CC2(C1)CN(c1ccc(Nc3ncc(F)c(-c4ccc5c(c4)C4(CCC4)CN(C)C5=O)n3)nc1)C2` [Example 69, 6′-(2-((5-(6-Ethyl-2,6-diazaspiro[3.3]heptan-2-yl)pyridin-2-yl)amino)-5-fluoropyrimidin-4-yl)-2′-methyl-2′,3′-dihydro-1′H-spiro[cyclobutane-1,4′-isoquinolin]-1′-one] as the molecule, how does the IC50 (CDK4/Cyclin D1) read?
**A.** 0.02 to 0.2 µM

**Q.** Which IC50 (CDK4/Cyclin D1) does the source give for `C/C=C/CN1CCC(c2ccc(Nc3ncc(F)c(-c4sc5c(c4C)C(=O)N(C)C54CC4)n3)nc2)C1` (stereo not drawn) [Example 72, (E)-2′-(2-((5-(1-(But-2-en-1-yl)pyrrolidin-3-yl)pyridin-2-yl)amino)-5-fluoropyrimidin-4-yl)-3′,5′-dimethylspiro[cyclopropane-1,6′-thieno[2,3-c]pyrrol]-4′(5′H)-one] here?
**A.** ≤ 0.02 µM

**Q.** For `CCN1CC2(C1)CN(c1ccc(Nc3ncc(F)c(-c4cc5c(s4)C4(CCCCC4)CN(CC)C5=O)n3)nc1)C2` [Example 75, 5′-Ethyl-2′-(2-((5-(6-ethyl-2,6-diazaspiro[3.3]heptan-2-yl)pyridin-2-yl)amino)-5-fluoropyrimidin-4-yl)-5′,6′-dihydro-4′H-spiro[cyclohexane-1,7′-thieno[3,2-c]pyridin]-4′-one], which IC50 (CDK4/Cyclin D1) is on record?
**A.** 0.02 to 0.2 µM

**Q.** `CCN1CC2(C1)CN(c1ccc(Nc3ncc(F)c(-c4cc5c(s4)C4(CN(C)C5=O)CC5(CC5)C4)n3)nc1)C2` [Example 76, 2″-(2-((5-(6-Ethyl-2,6-diazaspiro[3.3]heptan-2-yl)pyridin-2-yl)amino)-5-fluoropyrimidin-4-yl)-5″-methyl-5″,6″-dihydro-4″H-dispiro[cyclopropane-1,1′-cyclobutane-3′,7″-thieno[3,2-c]pyridin]-4″-one] was tested. Which IC50 (CDK4/Cyclin D1) did it give?
**A.** ≤ 0.02 µM

**Q.** With `CN1CCC(c2ccc(Nc3ncc(F)c(-c4ccc5c(c4)C4(CCCC4)N(C)C5=O)n3)nc2)CC1` [Example 79, 6′-(5-Fluoro-2-((5-(1-methylpiperidin-4-yl)pyridin-2-yl)amino)pyrimidin-4-yl)-2′-methylspiro[cyclopentane-1,1′-isoindolin]-3′-one] as the molecule, how does the IC50 (CDK4/Cyclin D1) read?
**A.** 0.02 to 0.2 µM

**Q.** For `CN1CCC(c2ccc(Nc3ncc(F)c(-c4cc5c(s4)C4(CN(C)C5=O)CC(F)(F)C4)n3)nc2)CC1` [Example 84, 3,3-Difluoro-2′-(5-fluoro-2-((5-(1-methylpiperidin-4-yl)pyridin-2-yl)amino)pyrimidin-4-yl)-5′-methyl-5′,6′-dihydro-4′H-spiro[cyclobutane-1,7′-thieno[3,2-c]pyridin]-4′-one], which IC50 (CDK4/Cyclin D1) is on record?
**A.** 0.02 to 0.2 µM

**Q.** Which IC50 (CDK4/Cyclin D1) does the source give for `CCN1CC2(C1)CN(c1ccc(Nc3ncc(F)c(-c4cc5c(s4)C4(CN(C)C5=O)CC(F)(F)C4)n3)nc1)C2` [Example 85, 2′-(2-((5-(6-Ethyl-2,6-diazaspiro[3.3]heptan-2-yl)pyridin-2-yl)amino)-5-fluoropyrimidin-4-yl)-3,3-difluoro-5′-methyl-5′,6′-dihydro-4′H-spiro[cyclobutane-1,7′-thieno[3,2-c]pyridin]-4′-one] here?
**A.** 0.02 to 0.2 µM

**Q.** With `CN1CCC(c2ccc(Nc3ncc(F)c(-c4cc5c(s4)C4(CCCC4)CN(C)C5=O)n3)nn2)CC1` [Example 87, 2-[5-Fluoro-2-[[6-(1-methylpiperidin-4-yl)pyridazin-3-yl]amino]pyrimidin-4-yl]-5-methylspiro[6H-thieno[3,2-c]pyridine-7,1′-cyclopentane]-4-one] as the molecule, how does the IC50 (CDK4/Cyclin D1) read?
**A.** 0.02 to 0.2 µM

Source: US20250163074A1, “CDK Inhibitors And Their Use As Pharmaceuticals” (Prelude Therapeutics Incorporated, priority 2020, published 2025)
